Measured values taken from ChEMBL document CHEMBL1201862, “PubChem BioAssay data set” (2004).
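How tested: cells in 96-well plates exposed to compound for 48 hours at five concentrations. Abbreviation: GI50, concentration required for 50% inhibition of growth.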 Calls of active or inactive are those of the source. Rule as the data show it: active = GI50 up to about 1.1 µM and inactive = higher.

Experiments:
Assay in all cases: DTP human tumour cell line panel, 48 h
[1] = tested on: KM12
[2] = tested on: OVCAR-3
[3] = tested on: BT-549
[4] = tested on: RXF 393
[5] = tested on: T47D
[6] = tested on: HCT-116
[7] = tested on: M14
[8] = tested on: HCC 2998
[9] = tested on: HOP-62
[10] = tested on: COLO 205
[11] = tested on: MDA-MB-435
[12] = tested on: OVCAR-4
[13] = tested on: TK-10
[14] = tested on: K562
[15] = tested on: SK-MEL-28
[16] = tested on: Hs-578T
[17] = tested on: IGROV-1
[18] = tested on: 786-0
[19] = tested on: EKVX
[20] = tested on: LOX IMVI

Compound: CN1CCc2[nH]nc(-c3n[nH]c4c3CN(C)CC4)c2C1
- GI50 [1]: > 100 µM (inactive)
- GI50 [2]: > 100 µM (inactive)
- GI50 [3]: > 100 µM (inactive)
- GI50 [4]: > 100 µM (inactive)
- GI50 [5]: > 100 µM (inactive)
- GI50 [6]: > 100 µM (inactive)
- GI50 [7]: > 100 µM (inactive)
- GI50 [8]: > 100 µM (inactive)
- GI50 [9]: > 100 µM (inactive)
- GI50 [10]: > 100 µM (inactive)
- GI50 [11]: > 100 µM (inactive)
- GI50 [12]: > 100 µM (inactive)
- GI50 [13]: > 100 µM (inactive)
- GI50 [14]: > 100 µM (inactive)
- GI50 [15]: 44.9 µM (inactive)
- GI50 [16]: > 100 µM (inactive)
- GI50 [17]: > 100 µM (inactive)
- GI50 [18]: > 100 µM (inactive)
- GI50 [19]: > 100 µM (inactive)
- GI50 [20]: > 100 µM (inactive)

Compound: Nc1ccc(S(=O)(=O)c2ccc(/N=[N+](\[O-])c3ccc(S(=O)(=O)c4ccc(N)cc4)cc3)cc2)cc1
- GI50 [1]: > 100 µM (inactive)
- GI50 [2]: 31 µM (inactive)
- GI50 [3]: 27.2 µM (inactive)
- GI50 [4]: 7.66 µM (inactive)
- GI50 [5]: > 48 µM (inactive)
- GI50 [6]: 46.5 µM (inactive)
- GI50 [7]: 99.3 µM (inactive)
- GI50 [8]: > 100 µM (inactive)
- GI50 [9]: 20.4 µM (inactive)
- GI50 [10]: > 100 µM (inactive)
- GI50 [11]: > 100 µM (inactive)
- GI50 [12]: 19.4 µM (inactive)
- GI50 [13]: > 44.1 µM (inactive)
- GI50 [14]: > 100 µM (inactive)
- GI50 [15]: > 80.4 µM (inactive)
- GI50 [16]: 8.39 µM (inactive)
- GI50 [17]: > 92.9 µM (inactive)
- GI50 [18]: 18.5 µM (inactive)
- GI50 [19]: 50 µM (inactive)
- GI50 [20]: > 60.7 µM (inactive)

Compound: NC(=S)N1N=C2c3ccccc3CCC[C@H]2[C@@H]1c1ccccc1
- GI50 [1]: 0.693 µM (active)
- GI50 [2]: 0.661 µM (active)
- GI50 [3]: 0.406 µM (active)
- GI50 [4]: 1.7 µM (inactive)
- GI50 [5]: 10 µM (inactive)
- GI50 [6]: 1.26 µM (inactive)
- GI50 [7]: 0.315 µM (active)
- GI50 [8]: 1.99 µM (inactive)
- GI50 [9]: 2.2 µM (inactive)
- GI50 [10]: 1.67 µM (inactive)
- GI50 [11]: 0.0977 µM (active)
- GI50 [12]: 5 µM (inactive)
- GI50 [13]: 10.3 µM (inactive)
- GI50 [14]: 0.284 µM (active)
- GI50 [15]: 10.5 µM (inactive)
- GI50 [16]: 0.552 µM (active)
- GI50 [17]: 2.36 µM (inactive)
- GI50 [18]: 1.01 µM (active)
- GI50 [19]: 9.23 µM (inactive)
- GI50 [20]: 1.59 µM (inactive)

Compound: COc1ccc2c(c1)CCN1CCc3cc(OC)c(OC)cc3CC21 (configuration not stated)
- GI50 [1]: 88.5 µM (inactive)
- GI50 [3]: 10.3 µM (inactive)
- GI50 [4]: 69 µM (inactive)
- GI50 [5]: 73.3 µM (inactive)
- GI50 [6]: 41.9 µM (inactive)
- GI50 [7]: 58.5 µM (inactive)
- GI50 [8]: 38.3 µM (inactive)
- GI50 [10]: 21.3 µM (inactive)
- GI50 [11]: 66.1 µM (inactive)
- GI50 [12]: > 100 µM (inactive)
- GI50 [13]: > 100 µM (inactive)
- GI50 [14]: 34.9 µM (inactive)
- GI50 [15]: > 100 µM (inactive)
- GI50 [16]: 89.5 µM (inactive)
- GI50 [17]: > 10 µM (inactive)
- GI50 [18]: > 100 µM (inactive)
- GI50 [19]: > 10 µM (inactive)
- GI50 [20]: 33 µM (inactive)

Compound: COc1cc(CNc2nc3ccccc3nc2-c2cccs2)cc(OC)c1OC
- GI50 [1]: 31.4 µM (inactive)
- GI50 [2]: 22.6 µM (inactive)
- GI50 [3]: 3.1 µM (inactive)
- GI50 [4]: 14 µM (inactive)
- GI50 [5]: 7.48 µM (inactive)
- GI50 [6]: 22.9 µM (inactive)
- GI50 [8]: 39.1 µM (inactive)
- GI50 [9]: 21.4 µM (inactive)
- GI50 [10]: 27.4 µM (inactive)
- GI50 [11]: 21.7 µM (inactive)
- GI50 [12]: 2.84 µM (inactive)
- GI50 [13]: 33.8 µM (inactive)
- GI50 [14]: 17.6 µM (inactive)
- GI50 [15]: 32.3 µM (inactive)
- GI50 [16]: 12.6 µM (inactive)
- GI50 [17]: 20.4 µM (inactive)
- GI50 [18]: 25.2 µM (inactive)
- GI50 [19]: 29.6 µM (inactive)
- GI50 [20]: 17.7 µM (inactive)
